Measurements from patent publication EP4610348A1, “HEPATOLENTICULAR DEGENERATION CELL, PREPARATION METHOD THEREFOR, AND EVALUATION METHOD THEREFOR” (GUANGXIU-GAOXIN LIFE SCIENCES CO., LTD. HUNAN, priority 2022, dated 2024).

Assays:
Format in all cases: cell-based, human
[1] = tested on: ATP7B gene in hepatolenticular degeneration hepatocytes; experiment: Detection of ATP7B gene expression (qPCR); conditions: after incubation with 100 µM to 300 µM copper sulfate or copper chloride
Description: (§1) 3.1 Detection of ATP7B gene expression: Cells on the last day of induction were collected, and ATP7B gene expression levels in the hepatocytes before and after incubation with 100 µM to 300 µM of copper sulfate or copper chloride were detected by qPCR method, with GAPDH gene as the internal reference. Primers were used for validation. The qPCR method was performed as follows: 95°C for 5 minutes; 45 cycles (94°C for 40 seconds, 54°C to 58°C for 10 seconds, 72°C for 10 seconds); and 72°C extension for 5 minutes.

[2] = tested on: ATP7B gene in normal hepatocytes; experiment: Detection of ATP7B gene expression (qPCR); conditions: after incubation with 100 µM to 300 µM copper sulfate or copper chloride
Description: as §1

[3] = tested on: ATP7B protein in normal hepatocyte; experiment: Detection of ATP7B protein expression (Western blotting); conditions: after incubation with 100 µM to 300 µM copper sulfate or copper chloride
Description: (§2) 3.2 Detection of ATP7B protein expression: Cells on the last day of induction were collected, and ATP7B protein expression levels in the hepatocytes before and after incubation with 100 µM to 300 µM of copper sulfate or copper chloride were detected by Western blotting method, with GAPDH protein as the internal reference. The induced cells were digested and collected in a 1.5 mL EP tube. An appropriate amount of protein lysis buffer was added depending on the cell solution volume (adding 200 µL RIPA lysis buffer for 1×10^6 cells). The cell solution was pipetted up and down to mix, and the cells were lysed in an ice bath with an ultrasonic cell disruptor for 15 minutes, then centrifuged at 13000 ×g and 4°C for 10 minutes. The supernatant was transferred to a new EP tube, and the protein concentration was detected using a BCA protein quantification kit. Polyacrylamide gel for SDS-PAGE was prepared, including preparing an 8% separating gel and a stacking gel. After the stacking gel was solidified, the comb was carefully pulled out. After a 40 µg sample and a 5 µL protein marker were loaded, the electrophoresis started at a 110 V constant voltage. After the Loading Buffer ran out of the separating gel, the electrophoresis stopped. […]

[4] = tested on: ATP7B protein in hepatolenticular degeneration hepatocyte; experiment: as above; conditions: after incubation with 100 µM to 300 µM copper sulfate or copper chloride
Description: as §2

[5] = tested on: hepatolenticular degeneration hepatocytes; experiment: Effect of copper ion accumulation on cell viability (CCK-8); conditions: 48 hours
Description: (§3) 3.4 Effect of copper ion accumulation on cell viability: The induced cells were digested and evenly inoculated in a 96-well plate, with about 3×10^4 cells per well, and edge wells were filled with sterile PBS. After the cells were adhered to the wall, a copper sulfate or copper chloride solution in different concentrations (0 mM, 0.5 mM, 1 mM, and 1.5 mM) were added, and 6 replicate wells were set in each group. The wells without cells were set as blank wells. After incubation at 37°C for 48 hours (fresh culture medium was replaced every 22 hours to 26 hours), the original culture medium was discarded, and the cells were washed three times with DPBS. Fresh culture medium (100 µL per well) was added, and a 10 µL CCK-8 reaction solution was added to each well, followed by incubating at 37 °C in the dark for 4 hours. After the incubation, the absorbance at 450 nm was detected using a microplate reader.

normal hepatocytes = experiment: as above; conditions: 48 hours
Description: as §3

Compound: [Cu+2] [copper ions]
- expression level of the ATP7B gene [1]: not upregulated significantly
- expression level of the ATP7B gene [2]: significantly upregulated
- expression level of the ATP7B protein [3]: significantly increased
- expression level of the ATP7B protein [4]: still expresses a low level of the ATP7B protein
- cell viability ([5]; 0.5 mM copper ions): 93.25%
- cell viability ([5]; 1 mM copper ions): 67.49%
- cell viability ([5]; 1.5 mM copper ions): 34.8%
- cell viability (normal hepatocytes; 0.5 mM copper ions): 95.33%
- cell viability (normal hepatocytes; 1 mM copper ions): 83.78%
- cell viability (normal hepatocytes; 1.5 mM copper ions): 73.53%
